Data from patent publication US12060349B2, “Glucosylceramide synthase inhibitors” (Genzyme Corporation, priority 2012, dated 2024).
Like-named read-outs stand apart in the source and are kept apart here.

How the values were obtained:
[1] = biological target: T1, glucosylceramide synthase (Homo sapiens, UniProt Q16739); assay: microsomal assay measuring conversion of ceramide to glucosylceramide by HPLC (GCS IC50); format: biochemical; settings: concentration causing 50% inhibition of glucosylceramide synthase activity
T1 construct: Microsomes were isolated from A375 human melanoma cells; endogenous in cells; host or cells: A375 human melanoma cells (microsomal fraction, 100,000 g pellet)
T1 sequence (Q16739 1-394): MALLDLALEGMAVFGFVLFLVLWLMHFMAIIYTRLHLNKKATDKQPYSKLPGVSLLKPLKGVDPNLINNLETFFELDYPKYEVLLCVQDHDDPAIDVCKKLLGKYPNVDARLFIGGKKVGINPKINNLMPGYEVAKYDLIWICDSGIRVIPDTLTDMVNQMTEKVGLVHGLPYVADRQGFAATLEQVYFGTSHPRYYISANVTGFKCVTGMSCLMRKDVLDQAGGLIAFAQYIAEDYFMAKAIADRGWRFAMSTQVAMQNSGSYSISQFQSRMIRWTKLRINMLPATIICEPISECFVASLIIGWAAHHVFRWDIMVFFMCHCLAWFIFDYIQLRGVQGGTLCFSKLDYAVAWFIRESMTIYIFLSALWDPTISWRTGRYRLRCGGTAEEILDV
Procedure, shortened: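 Microsomal preparation assayed for glucosylceramide synthase by direct HPLC measurement of ceramide conversion to glucosylceramide. GCS IC50 is the compound concentration giving 50% inhibition of enzyme activity.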

[2] = tested on: GM3 expression on the cell surface, B16 mouse melanoma cells; assay: cell based phenotypic assay, cell surface GM3 by antibody mediated immunofluorescence, B16 (GM3 B16 IC50); settings: Mus musculus, 50% inhibition of GM3 expression on the cell surface
Procedure, shortened: (§1)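 Both lines undergo the phenotypic GM3 assay, and viability is recorded from that same cell-based run.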

[3] = tested on: GM3 expression on the cell surface, C32 human melanoma cells; assay: cell based phenotypic assay, cell surface GM3 by antibody mediated immunofluorescence, C32 (GM3 C32 IC50); settings: Homo sapiens, 50% inhibition of GM3 expression on the cell surface
Procedure, shortened: as §1

B16 mouse melanoma cells = assay: cell viability in the B16 cell-based assay (Viability, B16 IC50); settings: Mus musculus
Procedure, shortened: as §1

C32 human melanoma cells = assay: cell viability in the C32 cell-based assay (Viability, C32 IC50); settings: Homo sapiens, concentration causing 50% cell death, values greater than 10 represent a lack of cell death
Procedure, shortened: as §1

[4] = B16 mouse melanoma cells, read-out: GM3 B16 IC50
[5] = C32 human melanoma cells, read-out: GM3 C32 IC50
[6] = B16, B16 cells, concentration causing 50% cell death, values greater than 10 represent a lack of cell death, read-out: Viability, B16 IC50
[7] = C32, C32 cells, read-out: Viability, C32 IC50
[8] = read-out: GM3 B16 IC50, B16 mouse melanoma cells
[9] = read-out: GM3 C32 IC50, C32 human melanoma cells
[10] = B16, read-out: Viability, B16 IC50
[11] = C32, read-out: Viability, C32 IC50, C32 cells

SMILES | IC50 [1] | IC50 [2, 4] | IC50 [3, 5] | IC50 (B16 mouse melanoma cells; [6]) | IC50 (C32 human melanoma cells; [7]) | IC50 [2, 8] | IC50 [3, 9] | IC50 (B16 mouse melanoma cells; [10]) | IC50 (C32 human melanoma cells; [11])
COCCOc1ccc(-c2cccc(C(C)(C)NC(=O)OC3CCN4CCC3CC4)c2)cc1 (centres unmarked) [Example 171, 1-Azabicyclo[3.2.2]nonan-4-yl (2-(4′-(2-methoxyethoxy)-[1,1′-biphenyl]-3-yl)propan-2-yl)carbamate] | 32.5 nM | 11.9 nM | 1.45 nM | 74.6 nM | 3980 nM |  |  |  | 
COCCCOc1ccc(-c2ccc(C(C)(C)NC(=O)OC3CN4CCC3CC4)cc2)cc1 (centres unmarked) [Example 172, Quinuclidin-3-yl (2-(4′-(3-methoxypropoxy)-[1,1′-biphenyl]-4-yl)propan-2-yl)carbamate] | 2.41 nM |  |  |  |  | 66.6 nM | 1.56 nM | 8290 nM | ≥ 10000 nM
COCCCOc1ccc(-c2ccc(C(C)(C)NC(=O)NC3(C)CN4CCC3CC4)cc2)cc1 (centres unmarked) [Example 173, 1-(2-(4′-(3-Methoxypropoxy)-[1,1′-biphenyl]-4-yl)propan-2-yl)-3-(3-methylquinuclidin-3-yl)urea] | 1.98 nM | 20.3 nM | 0.766 nM | ≥ 10000 nM | ≥ 10000 nM |  |  |  | 
COCCCOc1ccc(-c2ccc(C(C)(C)NC(=O)N3CCN4CCC3CC4)cc2)cc1 [Example 174, N-(2-(4′-(3-Methoxypropoxy)-[1,1′-biphenyl]-4-yl)propan-2-yl)-1,4-diazabicyclo[3.2.2]nonane-4-carboxamide] | 134 nM | 386 nM | 22.5 nM | ≥ 10000 nM | 1000 nM |  |  |  | 
COCCCOc1ccc(-c2ccc(C3(NC(=O)NC4(C)CN5CCC4CC5)CC3)cc2)cc1 (centres unmarked) [Example 176, 1-(1-(4′-(3-Methoxypropoxy)-[1,1′-biphenyl]-4-yl)cyclopropyl)-3-(3-methylquinuclidin-3-yl)urea] | 4.1 nM | 22 nM | 1.47 nM | ≥ 10000 nM | ≥ 10000 nM |  |  |  | 
COCCCOc1ccc(-c2ccc(C3(NC(=O)NC4(C)CCN5CCC4CC5)CC3)cc2)cc1 (centres unmarked) [Example 177, 1-(1-(4′-(3-Methoxypropoxy)-[1,1′-biphenyl]-4-yl)cyclopropyl)-3-(4-methyl-1-azabicyclo[3.2.2]nonan-4-yl)urea] | 1.59 nM | 1.75 nM | 0.497 nM | ≥ 10000 nM | ≥ 10000 nM |  |  |  | 
COCCCOc1ccc(-c2ccc(C3(NC(=O)OC4CCN5CCC4CC5)CC3)cc2)cc1 (centres unmarked) [Example 178, 1-Azabicyclo[3.2.2]nonan-4-yl (1-(4′-(3-methoxypropoxy)-[1,1′-biphenyl]-4-yl)cyclopropyl)carbamate] | 3.54 nM | 67.9 nM | 2.61 nM | ≥ 10000 nM | 7100 nM |  |  |  | 
CC(C)(NC(=O)OC1CN2CCC1CC2)c1ccc(-c2ccc(OCCn3cccn3)cc2)cc1 (centres unmarked) [Example 179, Quinuclidin-3-yl (2-(4′-(2-(1H-pyrazol-1-yl)ethoxy)-[1,1′-biphenyl]-4-yl)propan-2-yl)carbamate] | 6.73 nM |  |  |  |  | 95.2 nM | 4.99 nM | 8730 nM | 3160 nM
CC(C)(NC(=O)NC1(C)CN2CCC1CC2)c1ccc(-c2ccc(OCCn3cccn3)cc2)cc1 (centres unmarked) [Example 180, 1-(2-(4′-(2-(1H-Pyrazol-1-yl)ethoxy)-[1,1′-biphenyl]-4-yl)propan-2-yl)-3-(3-methylquinuclidin-3-yl)urea] | 5.3 nM | 46.3 nM | 1.81 nM | 3160 nM | 3160 nM |  |  |  | 
CC(C)(NC(=O)NC1(C)CCN2CCC1CC2)c1ccc(-c2ccc(OCCn3cccn3)cc2)cc1 (centres unmarked) [Example 181, 1-(2-(4′-(2-(1H-Pyrazol-1-yl)ethoxy)-[1,1′-biphenyl]-4-yl)propan-2-yl)-3-(4-methyl-1-azabicyclo[3.2.2]nonan-4-yl)urea] | 2.33 nM | 5.15 nM | 0.587 nM | 1000 nM | 1000 nM |  |  |  | 
CC(C)(NC(=O)OC1CN2CCC1CC2)c1ccc(-c2ccc(OCCn3ccnn3)cc2)cc1 (centres unmarked) [Example 182, Quinuclidin-3-yl (2-(4′-(2-(1H-1,2,3-triazol-1-yl)ethoxy)-[1,1′-biphenyl]-4-yl)propan-2-yl)carbamate] | 43.1 nM |  |  |  |  | 388 nM | 13.1 nM | 3160 nM | 1000 nM
CC(C)(NC(=O)NC1(C)CN2CCC1CC2)c1ccc(-c2ccc(OCCn3ccnn3)cc2)cc1 (centres unmarked) [Example 183, 1-(2-(4′-(2-(1H-1,2,3-Triazol-1-yl)ethoxy)-[1,1′-biphenyl]-4-yl)propan-2-yl)-3-(3-methylquinuclidin-3-yl)urea] | 31.6 nM | 969 nM | 10.2 nM | 5620 nM | 2510 nM |  |  |  | 
CCC1(NC(=O)NC(C)(C)c2ccc(-c3ccc(OCCn4ccnn4)cc3)cc2)CN2CCC1CC2 (centres unmarked) [Example 184, 1-(2-(4′-(2-(1H-1,2,3-Triazol-1-yl)ethoxy)-[1,1′-biphenyl]-4-yl)propan-2-yl)-3-(3-ethylquinuclidin-3-yl)urea] | 21.1 nM | 188 nM | 3.46 nM | 3160 nM | 1000 nM |  |  |  | 
CC(C)(NC(=O)NC1(C)CCN2CCC1CC2)c1ccc(-c2ccc(OCCn3ccnn3)cc2)cc1 (centres unmarked) [Example 185, 1-(2-(4′-(2-(1H-1,2,3-Triazol-1-yl)ethoxy)-[1,1′-biphenyl]-4-yl)propan-2-yl)-3-(4-methyl-1-azabicyclo[3.2.2]nonan-4-yl)urea] | 12.9 nM | 99.9 nM | 3.87 nM | 3160 nM | 1000 nM |  |  |  | 
CC(C)(NC(=O)OC1CCN2CCC1CC2)c1ccc(-c2ccc(OCCCn3ccnn3)cc2)cc1 (centres unmarked) [Example 187, 1-Azabicyclo[3.2.2]nonan-4-yl (2-(4′-(3-(1H-1,2,3-triazol-1-yl)propoxy)-[1,1′-biphenyl]-4-yl)propan-2-yl)carbamate] | 20.2 nM | 106 nM | 7.74 nM | ≥ 10000 nM | 1000 nM |  |  |  | 
CC(C)(NC(=O)N1CCN2CCC1CC2)c1ccc(-c2ccc(OCCCn3ccnn3)cc2)cc1 [Example 188, N-(2-(4′-(3-(1H-1,2,3-Triazol-1-yl)propoxy)-[1,1′-biphenyl]-4-yl)propan-2-yl)-1,4-diazabicyclo[3.2.2]nonane-4-carboxamide] | 597 nM | 365 nM | 77.4 nM | ≥ 10000 nM | 1000 nM |  |  |  | 
CC(C)(NC(=O)OC1CN2CCC1CC2)c1ccc(-c2ccc(OCCCC#N)cc2)cc1 (centres unmarked) [Example 189, Quinuclidin-3-yl (2-(4′-(3-cyanopropoxy)-[1,1′-biphenyl]-4-yl)propan-2-yl)carbamate] | 9.57 nM |  |  |  |  | 86.5 nM | 3.22 nM | ≥ 10000 nM | 8470 nM
CC(C)(NC(=O)OC1CN2CCC1CC2)c1ccc(-c2ccc(OCC#N)cc2)cc1 (centres unmarked) [Example 190, Quinuclidin-3-yl (2-(4′-(cyanomethoxy)-[1,1′-biphenyl]-4-yl)propan-2-yl)carbamate] | 2.59 nM |  |  |  |  | 47.7 nM | 0.775 nM | ≥ 10000 nM | 1000 nM
CC1(COc2ccc(-c3ccc(C(C)(C)NC(=O)OC4CN5CCC4CC5)cc3)cc2)COC1 (centres unmarked) [Example 191, Quinuclidin-3-yl (2-(4′-((3-methyloxetan-3-yl)methoxy)-[1,1′-biphenyl]-4-yl)propan-2-yl)carbamate] | 7.2 nM |  |  |  |  | 71.8 nM | 3.24 nM | 5250 nM | 1000 nM
